This is an account of results in ChEMBL document CHEMBL1156005, “Non-nucleoside inhibitors of HCV polymerase NS5B. Part 3: synthesis and optimization studies of benzothiazine-substituted tetramic acids” (Bioorg Med Chem Lett, 2009).

Data set [1] concerns the target Genome polyprotein (Hepatitis C virus genotype 1b (isolate Con1) (HCV), UniProt Q9WMX2). The data set can be described thus: Inhibition of […] 1b con1 NS5B polymerase assessed as [3H]UTP incorporation into acid insoluble RNA product.
In data set [2] the test system is Hepatitis C virus. Description: Antiviral activity against HCV 1b infected in human 2209-23 cells assessed as inhibition of virus RNA replication by renilla luciferase reporter gene assay in presence of 5% fetal bovine serum. In kind it is functional, organism-based, Hepacivirus hominis. The following applies: genotype 1b.
Data set [3] deals with Hepatitis C virus. The data set can be described thus: Antiviral activity against HCV 1b infected in human 2209-23 cells assessed as inhibition of virus RNA replication by renilla luciferase reporter gene assay in presence of 40% human serum. The following applies: genotype 1b. In kind it is functional, organism-based, Hepacivirus hominis. For orientation: A reporter such as luciferase makes a cellular process visible.

The subject of data set [4] is Hepatitis C virus. The data set can be described thus: Selectivity ratio, EC50 for HCV 1b in presence of 40% human serum to EC50 for HCV 1b in presence of 5% fetal bovine serum. It counts as functional, Hepacivirus hominis, genotype 1b.
Data set [5] in a line: Cytotoxicity against human 2209-23 cells assessed as […] by WST-1 assay. It counts as cell-based.
Data set [6] in a line: Tmax in po dosed rat. The conditions noted are these: in vivo. It counts as ADME, organism-based.
Data set [7] can be described thus: Clearance in rat at 2 mg/kg, iv. In kind it is ADME, organism-based. The arrangement: dose 2 mg/kg, route intravenous. The conditions noted are these: in vivo.
A short description of data set [8]: AUC in rat at 5 mg/kg. It counts as ADME, organism-based. On the set-up: dose 5 mg/kg. The conditions noted are these: plasma.
A short description of data set [9]: Oral bioavailability in rat. In kind it is ADME, organism-based. The following applies: in vivo.
Data set [10] relates to Caco-2. The data set can be described thus: Efflux ratio of permeability from […] side in human Caco-2 cells after 21 days. In kind it is ADME, cell-based. The conditions noted are these: caco-2, 504 h. Background: Caco-2 cells form a polarised layer with tight junctions and transporters.
Data set [11] is described as follows: Permeability by PAMPA. It counts as ADME. The following applies: read-out: permeability. (In general: The PAMPA barrier holds no transporters, so it reflects passive diffusion.)
Data set [12] is described as follows: Metabolic stability in rat liver microsomes. In kind it is ADME, Microsome. The conditions noted are these: read-out: Stability.
Data set [13] relates to Hepatitis C virus. Description: Antiviral activity against HCV 1b infected in human 2209-23 cells assessed as inhibition of virus RNA replication by renilla luciferase reporter gene assay. It counts as functional, organism-based, Hepacivirus hominis. The following applies: genotype 1b.
Data set [14] deals with Cytochrome P450 3A4 (Homo sapiens, UniProt P08684). Description: Inhibition of CYP3A4 by time dependent inactivation assay. It counts as ADME.
Chain of Cytochrome P450 3A4 (P08684 whole entry): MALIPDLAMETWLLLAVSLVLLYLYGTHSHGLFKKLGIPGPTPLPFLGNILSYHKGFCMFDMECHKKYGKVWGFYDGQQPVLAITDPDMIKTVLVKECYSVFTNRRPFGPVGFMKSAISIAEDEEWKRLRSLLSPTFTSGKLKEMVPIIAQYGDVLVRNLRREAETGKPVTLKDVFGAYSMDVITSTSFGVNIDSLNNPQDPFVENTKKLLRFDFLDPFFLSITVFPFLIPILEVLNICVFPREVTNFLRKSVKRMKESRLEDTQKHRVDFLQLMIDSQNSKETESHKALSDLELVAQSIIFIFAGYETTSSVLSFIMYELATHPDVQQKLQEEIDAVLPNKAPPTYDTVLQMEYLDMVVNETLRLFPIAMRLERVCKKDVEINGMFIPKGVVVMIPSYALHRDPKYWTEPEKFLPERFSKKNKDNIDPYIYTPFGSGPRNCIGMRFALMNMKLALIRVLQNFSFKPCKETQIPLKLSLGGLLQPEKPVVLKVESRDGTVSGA
The subject of data set [15] is Hepatitis C virus. The data set can be described thus: Ratio of EC50 for HCV 1a over EC50 for HCV 1b.

Chain of Genome polyprotein (Q9WMX2 2420-3010 limits assumed): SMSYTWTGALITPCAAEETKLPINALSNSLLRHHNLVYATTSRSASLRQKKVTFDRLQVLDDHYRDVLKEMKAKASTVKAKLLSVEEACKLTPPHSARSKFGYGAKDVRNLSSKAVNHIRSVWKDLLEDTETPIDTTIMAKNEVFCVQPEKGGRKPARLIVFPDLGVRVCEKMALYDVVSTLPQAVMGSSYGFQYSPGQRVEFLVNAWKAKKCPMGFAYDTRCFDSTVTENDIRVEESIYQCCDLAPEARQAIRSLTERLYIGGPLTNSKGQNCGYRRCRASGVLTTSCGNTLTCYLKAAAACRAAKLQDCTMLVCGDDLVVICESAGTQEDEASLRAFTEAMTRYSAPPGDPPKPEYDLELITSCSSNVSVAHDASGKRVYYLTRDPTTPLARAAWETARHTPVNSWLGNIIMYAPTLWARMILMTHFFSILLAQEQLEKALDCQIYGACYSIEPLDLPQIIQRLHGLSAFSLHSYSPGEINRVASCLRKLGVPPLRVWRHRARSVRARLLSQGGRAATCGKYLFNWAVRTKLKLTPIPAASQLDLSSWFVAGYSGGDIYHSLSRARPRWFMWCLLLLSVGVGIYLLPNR

Usually IC50 stands for the concentration at which inhibition is half-maximal. Broadly, the EC50 is the concentration needed to bring the measured effect to its halfway point. What is called CC50 is the concentration that lowers cell viability or growth by half. The term Tmax denotes the time at which the peak concentration occurs. Broadly, the clearance is the rate of elimination divided by the concentration. For orientation: AUC means concentration integrated over time. High values mean more exposure, low ones less exposure. What is called bioavailability is dose-corrected exposure relative to a reference, in per cent. Consider `CC(C)(C)[C@H]1C(O)=C(C2=CS(=O)(=O)c3cc(NS(C)(=O)=O)ccc3N2)C(=O)N1Cc1ccc(F)cc1`, for which the IC50 in data set [1] came to 7 nM. In addition, the EC50 turned out to be 12 nM in [2], 33 nM in data set [3] and 5 nM in data set [13]. Further, the “Ratio EC50” value in data set [4] was found to be 2.7; in data set [15], 4. In addition, the CC50 in data set [5] is greater than 50 µM. In addition, in data set [6], the time of peak concentration (Tmax) came to 1.3 h. In data set [7], this molecule showed a clearance of 101 mL/min/kg. The area under the curve (AUC) in [8] was 189 ng·h/mL. Moreover, the bioavailability in [9] stood at 22%. Moreover, the Ratio in data set [10] was 25. Besides, the Papp in data set [11] amounted to 1.4 ×10⁻⁶ cm/s. Also, in [12], the microsomal CLint turned out to be 32 µL/min/mg. In addition, the “inhibition (INH)” value in data set [14] turned out to be 41%.
Take `CC(C)(C)[C@H]1C(O)=C(C2=C(C(N)=O)S(=O)(=O)c3cc(NS(C)(=O)=O)ccc3N2)C(=O)N1Cc1ccc(F)cc1`: in data set [1], the IC50 is 11 nM. Besides, in [5], the CC50 is greater than 50 µM. For the same molecule, the clearance in [7] was found to be 5 mL/min/kg. Further, the EC50 in data set [13] amounted to 16 nM. In data set [14], the “inhibition (INH)” value stood at 17.8%. Besides, in data set [15], the “Ratio EC50” value is on record as 4.
Take `COc1cc(CN2C(=O)C(C3=CS(=O)(=O)c4cc(NS(C)(=O)=O)ccc4N3)=C(O)[C@@H]2C(C)(C)C)ccc1F`: the IC50 in data set [1] is 4 nM. The results for the EC50 in data set [2] and in [3] were 28 nM and 422 nM, respectively. The “Ratio EC50” value in data set [4] is given as 15.1. Moreover, the CC50 in data set [5] was greater than 50 µM.
Take `CC(C)(CO)[C@H]1C(O)=C(C2=CS(=O)(=O)c3cc(NS(C)(=O)=O)ccc3N2)C(=O)N1Cc1ccc(F)cc1`: in data set [14], the “inhibition (INH)” value worked out at 20.5%.
Take `CC(C)(C)[C@H]1C(O)=C(C2=CS(=O)(=O)c3cc(NS(C)(=O)=O)ccc3N2)C(=O)N1Cc1ccc(F)cc1F`: in data set [1], the IC50 came out at 13 nM. The figures for the EC50 in data set [2] and in data set [3] were 35 nM and 226 nM, respectively. Besides, the “Ratio EC50” value came to 6.5 in data set [4] and 4 in [15]. Moreover, the CC50 in [5] was greater than 50 µM.
Turning to `CC(C)(C)[C@H]1C(O)=C(C2=CS(=O)(=O)c3cc(NS(C)(=O)=O)ccc3N2)C(=O)N1Cc1ccc(F)cn1`, the IC50 in data set [1] is 42 nM. The EC50 in data set [2] stood at 201 nM; in data set [3], 1720 nM. Further, in data set [4], the “Ratio EC50” value was determined as 8.5. Also, the CC50 in data set [5] was greater than 50 µM.
Turning to `CC(C)(C)[C@H]1C(O)=C(C2=CS(=O)(=O)c3cc([N+](=O)[O-])ccc3N2)C(=O)N1Cc1ccc(F)cc1`, the IC50 in data set [1] amounted to 1800 nM. Also, the CC50 in data set [5] was greater than 50 µM. The EC50 in data set [13] was 16500 nM. The “inhibition (INH)” value in data set [14] was 0.4%.
The corresponding values for `CC(=O)C1=C(C2=C(O)[C@H](C(C)(C)C)N(Cc3ccc(F)cc3)C2=O)Nc2ccc(NS(C)(=O)=O)cc2S1(=O)=O` are 4 nM, greater than 50 µM, 20 nM and 15.1%.
Take `CC(C)(C)[C@H]1C(O)=C(C2=CS(=O)(=O)c3cc(C#N)ccc3N2)C(=O)N1Cc1ccc(F)cc1`: the IC50 in data set [1] is 1200 nM. Moreover, the CC50 in data set [5] was greater than 50 µM. In addition, in data set [13], the EC50 worked out at 6850 nM. The “inhibition (INH)” value in data set [14] stood at 10.9%.
In the case of `CC(C)(C)[C@H]1C(O)=C(C2=CS(=O)(=O)c3cc(NS(C)(=O)=O)ccc3N2)C(=O)N1Cc1ccc(F)c(Cl)c1`, the IC50 in data set [1] amounted to 5 nM. In addition, the EC50 worked out at 9 nM in data set [2] and 163 nM in data set [3]. In [4], the “Ratio EC50” value came to 18.1. The CC50 in [5] was greater than 50 µM. The molecule further returned a clearance in data set [7] of 86 mL/min/kg. Moreover, the Papp in data set [11] amounted to 0.98 ×10⁻⁶ cm/s. Further, the microsomal CLint in data set [12] amounted to 84 µL/min/mg. The “inhibition (INH)” value in data set [14] is recorded as 41%.
As for `CC(C)(C)[C@H]1C(O)=C(C2=C(C#N)S(=O)(=O)c3cc(NS(C)(=O)=O)ccc3N2)C(=O)N1Cc1ccc(F)cc1`, the IC50 in data set [1] came out at 6 nM. Besides, the CC50 in [5] was greater than 50 µM. In addition, the EC50 in data set [13] worked out at 16 nM. Further, the “inhibition (INH)” value in data set [14] is given as 24.7%. Moreover, the “Ratio EC50” value in data set [15] is listed as 4.
As to `CC(C)CCN1C(=O)C(C2=CS(=O)(=O)c3cc(NS(C)(=O)=O)ccc3N2)=C(O)[C@@H]1C(C)(C)C`, the IC50 in data set [1] turned out to be 5 nM. Moreover, the EC50 in [2] was 30 nM; in data set [3], 660 nM. The “Ratio EC50” value in [4] was 22. Further, in [5], the CC50 was greater than 50 µM.
Turning to `Cc1cc(CN2C(=O)C(C3=CS(=O)(=O)c4cc(NS(C)(=O)=O)ccc4N3)=C(O)[C@@H]2C(C)(C)C)ccc1F`, the IC50 in data set [1] worked out at 3 nM. The EC50 in data set [2] was 12 nM; in data set [3], 122 nM. Also, the “Ratio EC50” value in data set [4] amounted to 10.2; in data set [15], 4. Also, the CC50 in data set [5] is greater than 50 µM. This molecule gave a clearance in data set [7] of 101 mL/min/kg. Besides, the Papp in data set [11] stood at 1.62 ×10⁻⁶ cm/s. Besides, the microsomal CLint in data set [12] amounted to 327 µL/min/mg. Moreover, in data set [14], the “inhibition (INH)” value stood at 39%.
With `CC(C)(C)CCN1C(=O)C(C2=CS(=O)(=O)c3cc(NS(C)(=O)=O)ccc3N2)=C(O)[C@@H]1C(C)(C)C`, the IC50 in [1] was determined as 8 nM. Besides, the EC50 in data set [2] stood at 16 nM; in data set [3], 65 nM. Moreover, the “Ratio EC50” value in data set [4] turned out to be 4.1. The CC50 in [5] was greater than 50 µM. Besides, the clearance in [7] is greater than 100 mL/min/kg. Moreover, the Ratio in data set [10] was determined as 14. Further, the Papp in data set [11] is 1.8 ×10⁻⁶ cm/s. In [12], the microsomal CLint was determined as 79 µL/min/mg. In addition, the “inhibition (INH)” value in [14] was found to be 23%.
With `CC(C)(C)[C@H]1C(O)=C(C2=CS(=O)(=O)c3cc(F)ccc3N2)C(=O)N1Cc1ccc(F)cc1`, the IC50 in [1] was 338 nM. Besides, the cytotoxic concentration (CC50) in data set [5] was greater than 50 µM. For the same molecule, the EC50 in data set [13] came to 1870 nM. The “inhibition (INH)” value in data set [14] came out at 7.6%.
Take `CC(C)(C)[C@@H]1NC(=O)C(C2=CS(=O)(=O)c3cc(NS(C)(=O)=O)ccc3N2)=C1O`: the “inhibition (INH)” value in [14] amounted to 5.7%.
As to `CC(C)(C)[C@H]1C(O)=C(C2=C(Cl)S(=O)(=O)c3cc(NS(C)(=O)=O)ccc3N2)C(=O)N1Cc1ccc(F)cc1`, the IC50 in [1] came out at 2 nM. In addition, the CC50 in [5] is greater than 50 µM. In addition, the concentration for a half-maximal effect (EC50) in data set [13] turned out to be 4 nM. In addition, the “inhibition (INH)” value in [14] is 31%.
For `CC1=C(C2=C(O)[C@H](C(C)(C)C)N(Cc3ccc(F)cc3)C2=O)Nc2ccc(NS(C)(=O)=O)cc2S1(=O)=O` the same measures were 10 nM, greater than 50 µM, 78 nM and 21.9%.
For the molecule `CCC(C)(C)[C@H]1C(O)=C(C2=CS(=O)(=O)c3cc(NS(C)(=O)=O)ccc3N2)C(=O)N1Cc1ccc(F)c(C)c1`, the EC50 in [13] came to 24 nM.
Regarding `CC(C)(C)[C@H]1C(O)=C(C2=CS(=O)(=O)c3cc(NS(C)(=O)=O)ccc3N2)C(=O)N1Cc1ccccc1`, the IC50 in [1] turned out to be 8 nM. The EC50 is 32 nM in [2] and 139 nM in data set [3]. Also, the “Ratio EC50” value in [4] worked out at 4.3; in data set [15], 4. Besides, the CC50 in [5] is greater than 50 µM. This molecule also had a clearance in data set [7] of 144 mL/min/kg. In addition, the Ratio in data set [10] amounted to 11. Moreover, the Papp in data set [11] is 1.8 ×10⁻⁶ cm/s. Besides, the “inhibition (INH)” value in data set [14] is 19%.
For `CC(C)(C)[C@H]1C(O)=C(C2=CS(=O)(=O)c3cc(NS(C)(=O)=O)cc(F)c3N2)C(=O)N1Cc1ccc(F)cc1`, the IC50 in data set [1] stood at 9 nM. Moreover, the CC50 in [5] was greater than 50 µM. In addition, the clearance in data set [7] came out at 36 mL/min/kg. Moreover, in [13], the EC50 is 36 nM. Further, in [14], the “inhibition (INH)” value is listed as 8.5%. Moreover, the “Ratio EC50” value in [15] is on record as 4.
